Assay results reported in patent US8889699B2, “5-fluorouracil derivative” (Delta-Fly Pharma, Inc., priority 2009, dated 2014).

Columns and labels:
[1] = tested on: Human colon cancer strain (KM12C)
Description: (§1) The resulting product was stirred with a stirrer at room temperature for about 10 minutes. […] The proliferated strain was extracted, cut into about 2 to 3 mm square pieces with scissors in physiological saline, and subcutaneously inoculated to the right axillary region of rats of the same strain, 5 to 6 weeks of age, using a transplantation needle. […] Then, drug administration was initiated from the next day. Each of the test liquids shown in (a) to (b) above was administered orally to the rats in each of the test drug groups using a sonde for oral administration at a dose of 0.1 ml per 10 g body weight once a day for 14 continuous days. In the same manner as the above, the cancer-bearing rats in the control group were subjected to oral administration of only 0.5% HPMC liquid for 14 continuous days.
(§2) The tumor volume of each rat in each group before the initiation of the treatment, on day 3, day 5, day 8 (1 week after), day 11, and day 15 (2 weeks after), i.e., after termination of the administration, was calculated using Equation 1 below, and respective relative tumor volume (RTV) relative to the tumor volume at the time of initiation of the treatment was calculated. In relation to the antitumor effect, the average value of the tumor proliferation inhibition ratio (IR; %) was calculated from the average tumor volume of each treatment group on day 15 (after termination of the treatment) relative to that of the control group on day 15, using Equation 2. […] Along therewith, a weight change ratio was calculated from the body weight of the rats at the time of the termination of the drug administration relative to the body weight of the rats at the time of the initiation of the administration, using Equation 3. […] A coagulation inhibitor was added to each of the collected blood samples, and the white blood cell count, red blood cell count, and platelet count were measured using a hemocytometer.

[2] = tested on: human gastric cancer strain (SC-2)
Description: as §1, §2

[3] = molecular target: T1, DPD (Rattus norvegicus, UniProt O89000); assay: DPD inhibitory action in vitro (enzyme reaction, tritium-labeled 5-FU as substrate); assay type: biochemical; details: Conc. 0.02 μM; Table 5
T1 construct: the obtained supernatant was used as a DPD enzyme solution or an OPRT enzyme solution; from tissue; host or cells: liver of 8-week old SD rat; 105,000 g supernatant of homogenate
T1 sequence (O89000 1-1025): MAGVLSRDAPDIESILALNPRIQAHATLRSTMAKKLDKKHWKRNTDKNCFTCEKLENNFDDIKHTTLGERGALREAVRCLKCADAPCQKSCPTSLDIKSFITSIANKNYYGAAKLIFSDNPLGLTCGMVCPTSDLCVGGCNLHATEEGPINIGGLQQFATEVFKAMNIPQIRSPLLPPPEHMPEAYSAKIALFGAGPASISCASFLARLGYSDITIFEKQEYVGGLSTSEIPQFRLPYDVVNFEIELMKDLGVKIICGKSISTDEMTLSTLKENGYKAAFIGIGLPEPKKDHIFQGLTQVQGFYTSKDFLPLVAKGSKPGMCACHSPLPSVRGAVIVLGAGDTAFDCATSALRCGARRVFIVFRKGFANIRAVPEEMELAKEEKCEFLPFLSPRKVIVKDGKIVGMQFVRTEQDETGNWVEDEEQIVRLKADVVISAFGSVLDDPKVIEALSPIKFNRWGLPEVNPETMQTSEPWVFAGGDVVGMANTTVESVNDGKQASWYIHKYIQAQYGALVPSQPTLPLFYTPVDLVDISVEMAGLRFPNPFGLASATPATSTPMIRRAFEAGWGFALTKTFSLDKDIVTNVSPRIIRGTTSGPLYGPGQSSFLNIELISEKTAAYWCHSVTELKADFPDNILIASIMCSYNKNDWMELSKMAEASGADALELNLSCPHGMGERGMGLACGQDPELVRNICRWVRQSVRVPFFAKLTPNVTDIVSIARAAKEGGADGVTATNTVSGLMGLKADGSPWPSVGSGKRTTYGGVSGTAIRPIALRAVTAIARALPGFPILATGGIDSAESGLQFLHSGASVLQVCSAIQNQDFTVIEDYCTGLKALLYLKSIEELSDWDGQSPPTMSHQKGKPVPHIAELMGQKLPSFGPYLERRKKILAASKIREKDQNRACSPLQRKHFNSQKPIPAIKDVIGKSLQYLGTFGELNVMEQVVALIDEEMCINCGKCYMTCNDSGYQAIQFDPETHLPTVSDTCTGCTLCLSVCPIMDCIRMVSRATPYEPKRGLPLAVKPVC

[4] = oral, 14 days, Compound I-11 71 to 88 mg/kg/day, S-1 20 to 22.5 mg/kg/day

Row | Compound | antitumor effect ([1]; oral, 14 days, Compound I-10 51 to 77 mg/kg/day, S-1 15 to 22.5 mg/kg/day, FIG. 2-1) | diarrhea ([1]; rat, in vivo) | platelet count relative to that of the control group ([1]; rat, in vivo) | weight loss ([1]; rat, in vivo) | white blood cell count, reduced to % of that of the control group ([2]; 71 to 88 mg/kg/day orally for 2 weeks, FIG. 1-2) | platelet count relative to that of the control group ([2]; oral, 2 weeks, Compound I-11 71 to 88 mg/kg/day, S-1 20 to 22.5 mg/kg/day, FIG. 1-2) | toxic death ([2]; oral, 14 days, Compound I-11 71 to 88 mg/kg/day) | diarrhea [2, 4] | weight loss [2, 4] | antitumor effect ([2]; oral, 14 days, Compound I-11 71 to 88 mg/kg/day, S-1 20 to 22.5 mg/kg/day, FIG. 1-1) | DPD Inhibitory Activity: Activity [3] [nmol/mL/min] | inhibition at 0.02 µM [3] [%]
1 | CCOCn1cc(F)c(=O)n(C(=O)c2cccc(C(=O)Oc3cc(OC(=O)c4cc(OC(C)=O)nc(OC(C)=O)c4)c(Cl)cn3)c2)c1=O [Compound I-10, 3-{3-[4-(2,6-diacetyloxyisonicotinoyloxy)-5-chloro-2-pyridyloxycarbonyl]benzoyl}-1-ethoxymethyl-5-fluorouracil] | high antitumor effects in a dose-dependent manner | not observed | the same as that of the control group | not observed |  |  |  |  |  |  |  | 
2 | CCOCn1cc(F)c(=O)n(C(=O)c2cccc(C(=O)Oc3cc(OC(=O)c4cc(OC(=O)CC)nc(OC(=O)CC)c4)c(Cl)cn3)c2)c1=O [Compound I-11, 3-{3-[4-(2,6-dipropionyloxyisonicotinoyloxy)-5-chloro-2-pyridyloxycarbonyl]benzoyl}-1-ethoxymethyl-5-fluorouracil] |  |  |  |  | about 50% | almost the same as that of the control group | not observed | not observed | not observed | high antitumor effects in a dose-dependent manner | 0.705 | 0
